In brackets after ≈: the same amount, converted by molar mass. Peptide text beside a SMILES is read from it.
How the values were obtained:
B. subtilis 168 [1] = format: cell-based, Bacillus subtilis; settings: 168, 18 h
Procedure: (§1) Cells were inoculated from an overnight culture 1:100 and grown to mid-log phase (OD600 = 0.2–0.4). Unless stated otherwise, all experiments were carried out in LB medium at 37 °C. Cell numbers were determined using a Petroff-Hausser counting chamber: OD600 = 1 corresponds to 8.8 × 10^7 CFU/ml B. subtilis. Further information on strains, conditions of gene induction, and minimal inhibitory concentration are listed in Supplementary Table 4.
(§2) The minimal inhibitory concentration (MIC), which is defined as the lowest concentration able to inhibit growth of a microorganism in vitro[59], was analysed as described before. Briefly, bacteria were grown to mid-log phase and diluted in growth medium to give a final cell number of 5 × 10^5 cells/well in 96 well microtiter plates. A microdilution technique was applied where small volumes of peptide solutions were added in a serial dilution ranging from 100 to 0.05 μM. Cells were cultivated for 18 hours, 37 °C, 180 rpm, followed by photometrical detection of the optical density using a microplate reader (Tecan). Peptide concentrations were tested in triplicates in three independent experiments.

B. subtilis HB5343 = format: cell-based, Bacillus subtilis; settings: psd::ery (PE-deficient), determined in LB
Procedure: as §1, §2

B. subtilis SDB206 = format: cell-based, Bacillus subtilis; settings: ywiE::neo clsB::spc clsA::ery (CL-deficient), determined in LB
Procedure: as §1, §2

B. subtilis 168/DSM402 = format: cell-based, Bacillus subtilis
Procedure: (§3) B. subtilis 168/DSM402 was grown in chemically defined Belitzky minimal medium (BMM)[61]. Cultures were incubated at 37 °C under steady agitation. Minimal inhibitory concentrations (MIC) were determined as described previously. In growth experiments, exponentially growing cultures were exposed to a concentration range of peptide (Supplementary Figure 1)[62]. For physiological stress experiments, concentrations were chosen that led to 50% reduction of the growth rate. For proteomic profiling, as well as for all follow up experiments performed under the same growth conditions, 8 μM cWFW were used.

B. subtilis 168/DSM 402 [2] = assay: Cytosolic proteome response profile (radioactive pulse-labelling, 2D-PAGE); format: cell-based, Bacillus subtilis; settings: 8 μM cWFW, BMM
Procedure: To identify which cellular processes are disturbed by cWFW, we performed proteomic profiling of the Gram-positive model organism B. subtilis (Fig. 1). This technique combines radioactive pulse-labeling of newly synthesised proteins with two-dimensional SDS PAGE, thus providing insight into the acute antibiotic stress response.
as §3
Radioactive labelling of newly synthesised proteins and subsequent separation of the cytosolic proteome by two-dimensional polyacrylamide gel electrophoresis (2D-PAGE) was performed as previously described. Analytical gel images were analysed as described by Raatschen & Bandow[63] using Decodon Delta 2D 4.1 image analysis software. […] Protein spots were identified by MALDI-ToF/ToF or nanoUPLC-ESI-MS/MS using a Synapt G2-S HDMS mass spectrometer equipped with a lock spray source for electrospray ionisation and a ToF detector (Waters) as previously reported (Supplementary Tables 2 and 3)[62].

B. subtilis 168 [3] = assay: Membrane potential measurement with DiSC3(5); format: cell-based, Bacillus subtilis
Procedure: Peptide-induced changes in membrane potential were measured using the voltage-sensitive fluorescent dye DiSC3(5). In aqueous solution DiSC3(5) emits strong fluorescence which is quenched upon accumulation in polarised cells. Upon depolarisation, DiSC3(5) is released from the cell resulting in an increased fluorescence due to de-quenching. B. subtilis 168 was grown at 37 °C to mid-log phase and diluted in LB medium to OD600 0.2. After centrifugation for 1 min at 16,500 rpm, the supernatant was removed and cells carefully resuspended in 1 ml fresh pre-warmed LB containing 0.1 mg/ml BSA. Subsequently, 140 μl aliquots of the cell suspension were transferred into a 96 well microtiter plate and allowed to settle. 10 μl of 15 μM DiSC3(5) in LB/15% DMSO were added to the wells to give a final DiSC3(5) concentration of 1 μM. Cellular accumulation (quenching) of DiSC3(5) was monitored until the signal had reached stable fluorescence levels. The peptides were added at desired concentrations at 5 μl/well, and the resulting changes in DiSC3(5) fluorescence were analysed for at least 20 min using a Fluostar Optima, BMG Labtech. Solutions, plates and instruments were warmed to 37 °C prior to use.

B. subtilis 168 [4] = assay: ATP measurement (luciferase-based luminescence); format: cell-based, Bacillus subtilis; settings: 20 min incubation with 4, 8, and 12 μM; p ≥ 0.05; three independent replicates
Procedure: For the determination of cellular ATP levels samples were incubated with increasing concentration of cWFW for 20 min, followed by flash-freeze in liquid N2 in order to stop metabolism. Cell lysis and measurement of cell ATP levels were carried out using ATP bioluminescence Assay Kit HSII (Roche Applied Science) following manufacturer’s instructions using a BMG Fluostar Optima luminometer. The measured luminescence was calibrated with a serial dilution of ATP and triplicate samples were equalised against the optical density of the corresponding cell suspensions.

B. subtilis 168/DSM 402 [5] = assay: Ion analysis (ICP-OES); format: cell-based, Bacillus subtilis; settings: 15 min incubation with 8 μM, BMM, three independent measurements
Procedure: Only metal-free plastic ware and ultrapure water (Bernd Kraft) were used. All centrifugation steps were reduced to 2 min to reduce sample handling time. Cultures were adjusted to OD500 = 0.4 prior to antibiotic exposure to ensure equal cell count in each sample. Samples were prepared as described by Wenzel et al.[13]. Briefly, B. subtilis 168/DSM402 was grown in BMM until early exponential growth phase. For determination of ion concentrations, subcultures were incubated with 8 μM cWFW for 15 min, followed by cell harvest by centrifugation, washed twice in TE buffer (100 mM Tris-HCl, 1 mM EDTA, pH 7.5) and once in the same buffer without EDTA. The obtained cell pellets were digested in 65% nitric acid (Bernd Kraft) at 80 °C for 16 h. Prior to element analysis, samples were diluted with ultrapure water to a final nitric acid concentration of 10%. Element concentrations were determined by inductively-coupled plasma atomic emission spectroscopy using an iCAP* 6300 Duo View ICP Spectrometer (Thermo Fisher Scientific) as described before. […] Element concentrations were converted into intracellular ion concentrations based on the B. subtilis cellular volume, which was taken as 3 × 10^–9 μl based on average rod size determined by cryo-electron microscopy images by Matias and Beveridge[64][65].

B. subtilis 168 [6] = assay: Membrane fluidity in cells (laurdan GP); format: cell-based, Bacillus subtilis
Source text: Membrane fluidity was investigated with the small hydrophobic fluorescent dye laurdan, which integrates into cellular membranes and detects changes related to the lipid packing of the surrounding bilayer. The resulting changes in the fluorescence emission spectrum can be detected either spectroscopically or with fluorescence microscopy. A mathematical quantification of the emission shift is achieved by calculation of the laurdan GP (generalised polarisation) with GP = (I435 − I490)⁄(I435 + I490).
B. subtilis 168 cells were grown to OD600 ~ 0.5 in LB/0.1% glucose and incubated with 10 μM laurdan for 5 min, shaking in the dark. […] The supernatant removed from the cells after the last washing step served as background for laurdan fluorescence not associated with cells. […] All samples were shaken briefly before fluorescence detection at 435 ± 5 nm and 490 ± 5 nm (upon excitation at 350 ± 10 nm) on a plate reader (Fluostar Optima, BMG Labtech). Laurdan fluorescence was monitored for at least 20 min. […] Laurdan fluorescence in liposomes was recorded using an LS 50B spectrofluorometer (Perkin-Elmer Corp., Germany). […] Laurdan fluorescence was detected separately at 435 and 500 nm, respectively. The average of three measurements for each preparation was calculated to determine corresponding laurdan GP values. […]

[7] = tested on: B. subtilis KS19 (ΔlytABCDEF); assay: Cell lysis (optical density) in autolysin-deficient strain; format: cell-based, Bacillus subtilis; settings: different concentrations, three replicate cultures
human cells = settings: cited from earlier work
Source text: Antimicrobial peptides (AMPs) have been in the focus of research attention as a promising alternative for conventional antibiotics. The subclass of arginine- and tryptophan-rich peptides, with cationic charge and hydrophobic residues, provides the ideal structural prerequisite for interaction with the negatively charged bacterial membranes. To elucidate optimal structure-activity properties we screened a library of small synthetic peptides derived from the active motif of human antimicrobial peptide lactoferricin[3]. This analysis identified the cyclic hexapeptide cWFW (cyclo-RRRWFW) as ...

N=C(N)NCCC[C@@H]1NC(=O)[C@H](CCCNC(=N)N)NC(=O)[C@H](Cc2c[nH]c3ccccc23)NC(=O)[C@H](Cc2ccccc2)NC(=O)[C@H](Cc2c[nH]c3ccccc23)NC(=O)[C@H](CCCNC(=N)N)NC1=O [cWFW, cyclo(RRRWFW)] (cyclo(FWRRRW))
MIC (B. subtilis 168 [1]): 6 µM (≈ 5.93 µg/mL) | MIC (B. subtilis HB5343): 6 µM (≈ 5.93 µg/mL) | MIC (B. subtilis SDB206): 6 µM (≈ 5.93 µg/mL) | MIC (B. subtilis 168/DSM402): 8 µM (≈ 7.91 µg/mL) | induction factor of protein AcsA (B. subtilis 168/DSM 402 [2]): 3.7 | induction factor of protein CitZ (B. subtilis 168/DSM 402 [2]): 3.5 | induction factor of protein ClpC (B. subtilis 168/DSM 402 [2]): 5.4 | induction factor of protein ClpP (B. subtilis 168/DSM 402 [2]): 4.8 | induction factor of protein DltA (B. subtilis 168/DSM 402 [2]): 4.2 | induction factor of protein Dps (B. subtilis 168/DSM 402 [2]): 5.2 | induction factor of protein FbaA (B. subtilis 168/DSM 402 [2]): 2.9 | induction factor of protein FosB (B. subtilis 168/DSM 402 [2]): 8.3 | induction factor of protein GroEL (B. subtilis 168/DSM 402 [2]): 3.9 | induction factor of protein GsiB (B. subtilis 168/DSM 402 [2]): 8.4 | induction factor of protein GtaB (B. subtilis 168/DSM 402 [2]): 3.2 | induction factor of protein IspH (B. subtilis 168/DSM 402 [2]): 19.0 | induction factor of protein LiaH (B. subtilis 168/DSM 402 [2]): 16.6 | induction factor of protein LuxS (B. subtilis 168/DSM 402 [2]): 3.4 | induction factor of protein MinD (B. subtilis 168/DSM 402 [2]): 3.1 | induction factor of protein NadE (B. subtilis 168/DSM 402 [2]): 11.0 | induction factor of protein NfrA (B. subtilis 168/DSM 402 [2]): 5.7 | induction factor of protein OhrB (B. subtilis 168/DSM 402 [2]): 4.4 | induction factor of protein PepF (B. subtilis 168/DSM 402 [2]): 3.6 | induction factor of protein PspA (B. subtilis 168/DSM 402 [2]): 9.5 | induction factor of protein PurH (B. subtilis 168/DSM 402 [2]): 3.4 | induction factor of protein RacX (B. subtilis 168/DSM 402 [2]): 12.0 | induction factor of protein SalA (B. subtilis 168/DSM 402 [2]): 3.5 | induction factor of protein SodA (B. subtilis 168/DSM 402 [2]): 3.0 | induction factor of protein SpoVG (B. subtilis 168/DSM 402 [2]): 2.4 | induction factor of protein TpiA (B. subtilis 168/DSM 402 [2]): 5.8 | induction factor of protein Tpx (B. subtilis 168/DSM 402 [2]): 4.1 | induction factor of protein YceC (B. subtilis 168/DSM 402 [2]): 9.9 | induction factor of protein YdaG (B. subtilis 168/DSM 402 [2]): 5.6 | induction factor of protein YdbD (B. subtilis 168/DSM 402 [2]): 19.4 | induction factor of protein YfhM (B. subtilis 168/DSM 402 [2]): 5.8 | induction factor of protein YjdA (B. subtilis 168/DSM 402 [2]): 3.4 | induction factor of protein YkaA (B. subtilis 168/DSM 402 [2]): 4.6 | induction factor of protein YoxD (B. subtilis 168/DSM 402 [2]): 7.1 | induction factor of protein YpuA (B. subtilis 168/DSM 402 [2]): 4.0 | induction factor of protein YqiW (B. subtilis 168/DSM 402 [2]): 2.4 | induction factor of protein YqkF (B. subtilis 168/DSM 402 [2]): 7.7 | induction factor of protein YthP (B. subtilis 168/DSM 402 [2]): 5.9 | induction factor of protein YvlB (B. subtilis 168/DSM 402 [2]): 9.0 | induction factor of protein YvyD (B. subtilis 168/DSM 402 [2]): 6.2 | induction factor of protein YwjI (B. subtilis 168/DSM 402 [2]): 6.4 | induction factor of protein YwrO (B. subtilis 168/DSM 402 [2]): 4.3 | membrane depolarisation (DiSC3(5) fluorescence) (B. subtilis 168 [3]; growth-inhibitory concentrations (8 μM) and above, LB, 37 °C, three independent replicates): very low compared to that of the positive control KLA-1 | time until membrane potential was restored almost to control levels (B. subtilis 168 [3]; growth-inhibitory concentrations (8–12 μM)): ≤ 10 min | change of ATP levels (B. subtilis 168 [4]): No significant changes | change in cellular K+ content (B. subtilis 168/DSM 402 [5]): accumulation of K^+ | leakage of cellular ions (B. subtilis 168/DSM 402 [5]): no leakage of cellular ions was observed | time until reduction of membrane fluidity reaches a steady state (B. subtilis 168 [6]; 6 μM, time-resolved laurdan GP): ≤ 2 min | change of laurdan generalised polarisation (GP) in cells (B. subtilis 168 [6]; 10 min incubation with increasing concentrations, high GP = low membrane fluidity, three replicates): clear concentration-dependent increase in laurdan generalised polarisation (GP) | lysis triggered by cWFW in the absence of major autolysins LytCDEF [7]: fully abolished | toxicity towards human cells (human cells): not toxic towards human cells
